# Data: patent US8350039B2, “Substituted isoquinoline derivatives, pharmaceutical compositions, and methods of use as beta-secretase inhibitors” (High Point Pharmaceuticals, LLC, priority 2009, dated 2013)
# Legend:
# BACE-1 enzyme = molecular target: T1, BACE-1 enzyme (Homo sapiens, UniProt P56817); assay: BACE Fluorescence Resonance Energy Transfer (FRET) Assay; assay type: biochemical; details: peptide substrate, pH 4-4.5, 30 min pre-incubation, 1.5 hours at room temperature
# T1 construct: purchased R & D Systems 931AS
# T1 sequence (P56817 46-457 limits assumed): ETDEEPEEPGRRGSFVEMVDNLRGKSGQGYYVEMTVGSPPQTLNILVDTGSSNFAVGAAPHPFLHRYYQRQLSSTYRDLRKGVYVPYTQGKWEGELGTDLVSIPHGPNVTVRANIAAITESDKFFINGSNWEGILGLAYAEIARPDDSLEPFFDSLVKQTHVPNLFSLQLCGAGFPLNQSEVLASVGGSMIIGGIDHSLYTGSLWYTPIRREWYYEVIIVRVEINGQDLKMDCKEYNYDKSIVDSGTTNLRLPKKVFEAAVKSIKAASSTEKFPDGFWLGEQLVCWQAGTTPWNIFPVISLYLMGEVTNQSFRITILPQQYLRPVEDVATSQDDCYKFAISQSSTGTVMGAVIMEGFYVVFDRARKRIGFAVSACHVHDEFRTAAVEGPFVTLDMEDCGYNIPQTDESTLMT
# Protocol: BACE Fluorescence Resonance Energy Transfer (FRET) Assay
# In the following assay, the proteolytic activity of BACE is measured by observing cleavage of a fluorescent group from a peptide substrate containing a rhodamine fluorescent donor and a quenching acceptor.
# The inhibitory activity of compounds of Formula (I) may be compared to a statine derived control inhibitor STA200 (MP Biomedical Cat. #STA-200). The cleavage reaction occurs when a BACE-1 substrate (Invitrogen, Cat. #P2986) was added to a reaction mixture containing BACE-1 enzyme (R & D Systems, Cat. #931AS) and allowed to proceed for 1.5 hours. Fluorescence, used as a marker of BACE activity, is monitored using 540 nm excitation and 585 nm emission wavelengths (Envision, Perkin Elmer).
# A typical assay reaction contains BACE-1 enzyme—in assay buffer (50 mM sodium acetate, pH 4-4.5, 0.01% CHAPS (3-[(3-Cholamidopropyl)dimethylammonio]-1-propanesulfonate), 0.0125% TritonX-100, 0.006% EDTA) which is pre-incubated for 30 minutes with test compound in 7.5% DMSO. The reaction is initiated with the addition of BACE-1 substrate in assay buffer and allowed to proceed for 1.5 hours at room temperature. Assays are conducted in black 384-well microtiter plates and scanned at room temperature using 540 nm excitation and 585 nm emission wavelengths.
# A test compound's activity is reported as the IC50.
# [1] = system: HEK293 cells stably expressing wildtype human APP695 protein (HEK-APPwt cells); assay: Aβ Cell Based Assay (Aβ1-40 secretion, ELISA); details: reduction of Aβ1-40 secretion from HEK-APPwt cells, 6 hours incubation, DAPT as 100% inhibition reference
# Protocol: Aβ Cell Based Assay Procedure
# In the following assay, the proteolytic activity of BACE in cells exposed to varying concentrations of a compound of interest is measured by observing the amount of Aβ1-40 secreted from HEK293 cells (Human Embryonic Kidney epithelial cell line) stably expressing wildtype human APP695 protein (HEK-APPwt cells).
# HEK-APPwt cells were grown in high glucose DMEM (Dulbecco's Modified Eagles Medium SIGMA Cat. #D5796) supplemented with 25 mM HEPES (4-(2-hydroxyethyl)-1-piperazineethanesulfonic acid) (pH 7.4) (Invitrogen Cat. #15630-114), 0.1 mM NEAA (Non-essential Amino Acids) (BioWhittaker Cat. #13-114E), 10% fetal bovine serum (SIGMA Cat. #F4135) and 250 μg/mL hygromycin (Invitrogen Cat. #10687-010) in T-225 flasks at 37° C. with 5% CO2 and humidity control.
# Test compounds were initially prepared in DMSO and diluted with DMEM media containing 2% FBS (Fetal bovine serum). Ten standard compound solutions were prepared having a range of concentrations. The standard compound solutions were used to determine the EC50 of the test compound. The range of concentrations chosen may depend on the compound's predicted potency.
# To prepare the cells for the assay, a flask containing HEK-APPwt cells were trypsinized briefly (1 mL trypsin), and once the cells detached, 4 mL of 10% FBS-DMEM was added to the flask. The detached cells were centrifuged at 900 rpm for 5 min to form a pellet.
# The HEK-APPwt cell pellet was re-suspended with 10 mL DMEM media containing 2% FBS. 80 μL of the cell suspension was added to each well of a 96-well cell culture plate to give 100×10^4 cells/mL. 10 μL of a standard compound solution was added to each well of the 96-well cell culture plate followed by 10 μL of Alamar blue solution. The cells were incubated at 37° C. in a 5% CO2 incubator for 6 hours.
# At the end of the incubation, the plates were removed from incubator, and the supernatant was collected. Aβ1-40 concentration in the medium was measured by using a commercial Aβ1-X ELISA kit (IBL, Japan Cat. #27729). Briefly, the ELISA plates were coated with an anti-human Aβ (N)(82E1) mouse IgG monoclonal antibody. A horseradish peroxidase conjugated anti-human Aβ11-28 mouse IgG monoclonal antibody was used for detection. The cell culture supernatant was diluted with EIA buffer+protease inhibitors (kit buffer containing protease inhibitors (1 mL PI/30 mL buffer)). A 100 μL aliquot of the diluted supernatant was added to each well of the ELISA plate and incubated for 6 hrs at 4° C. The ELISA plate was washed 8 times with phosphate buffered saline (PBS) containing 0.05% Tween 20.
# A 100 μL of detection antibody was then added and incubated for 1 hour at 4° C. The plate was washed 8 times with PBS buffer containing 0.05% Tween 20 followed by addition of 100 μL of the chromogen tetramethylbenzidine (TMB). The plate was incubated in the dark at room temperature for about 30 min and a stop solution (1N H2SO4) was added.
# The intensity of the color developed was measured at 450 nm. The optical density at 450 nm (OD450) is proportional to the concentration of human Aβ1-40 secreted by the cell. As a reference, N—[N-(3,5-difluorophenacetyl-L-alanyl)]-S-phenylglycine t-butyl ester (DAPT, a γ-secretase inhibitor) was used to indicate 100% inhibition of BACE activity. Thus, the assay measures the ability of a compound of interest to reduce Aβ1-40 secretion. Compound potency was reported as the EC50 by calculating the percent inhibition at all concentration levels and the data were fit with non-linear curve fitting algorithm using in GraphPad Prism.
Compound,IC50 (BACE-1 enzyme) [µM],EC50 [1] [µM]
"O=C(Nc1nc2cc(OCCCc3ccccc3)ccc2[nH]1)c1cc2ccccc2cn1 [Example 8, Isoquinoline-3-carboxylic acid [5-(3-phenyl-propoxy)-1H-benzoimidazol-2-yl]-amide]",0.47,1.2
"O=C(Nc1nc2cc(-c3ccccc3)ccc2[nH]1)c1cc2ccccc2cn1 [Example 9, Isoquinoline-3-carboxylic acid (5-phenyl-1H-benzoimidazol-2-yl)-amide]",0.19,1.09
"O=C(Nc1nc2cc(OCc3ccc(F)cc3)ccc2[nH]1)c1cc2ccccc2cn1 [Example 4, Isoquinoline-3-carboxylic acid [5-(4-fluoro-benzyloxy)-1H-benzoimidazol-2-yl]-amide]",0.1,0.16
"COc1cccc(-c2ccc3[nH]c(NC(=O)c4cc5ccccc5cn4)nc3c2)c1 [Example 10, Isoquinoline-3-carboxylic acid [5-(3-methoxy-phenyl)-1H-benzoimidazol-2-yl]-amide]",0.16,1
"O=C(Nc1nc2cc(OCCC3CCCC3)ccc2[nH]1)c1cc2ccccc2cn1 [Example 6, Isoquinoline-3-carboxylic acid [5-(2-cyclopentyl-ethoxy)-1H-benzoimidazol-2-yl]-amide]",0.26,0.16
"O=C(Nc1nc2cc(OCc3ccccc3)ccc2[nH]1)c1cc2ccccc2cn1 [Example 1, Isoquinoline-3-carboxylic acid (5-benzyloxy-1H-benzoimidazol-2-yl)-amide]",0.085,0.12
"O=C(Nc1nc2cc(OCCc3ccccc3)ccc2[nH]1)c1cc2ccccc2cn1 [Example 2, Isoquinoline-3-carboxylic acid (5-phenethyloxy-1H-benzoimidazol-2-yl)-amide]",0.19,2

# The remaining compounds from weak to strong by IC50 (BACE-1 enzyme), led by results:
IC50 (BACE-1 enzyme) [µM],Compound,EC50 [1] [µM]
0.95,"O=C(Nc1nc2cc(OCc3ccc(C(F)(F)F)cc3)ccc2[nH]1)c1cc2ccccc2cn1 [Example 3, Isoquinoline-3-carboxylic acid [5-(4-trifluoromethyl-benzyloxy)-1H-benzoimidazol-2-yl]-amide]",0.55
0.86,"O=C(Nc1nc2cc(OCc3ccc(F)cc3F)ccc2[nH]1)c1cc2ccccc2cn1 [Example 5, Isoquinoline-3-carboxylic acid [5-(2,4-difluoro-benzyloxy)-1H-benzoimidazol-2-yl]-amide]",1.2
0.38,"O=C(Nc1nc2cc(N(Cc3ccccc3)Cc3ccccc3)ccc2[nH]1)c1cc2ccccc2cn1 [Example 12, Isoquinoline-3-carboxylic acid (5-dibenzylamino-1H-benzoimidazol-2-yl)-amide]",2.3
0.13,"O=C(Nc1nc2cc(NCc3ccccc3)ccc2[nH]1)c1cc2ccccc2cn1 [Example 11, Isoquinoline-3-carboxylic acid (5-benzylamino-1H-benzoimidazol-2-yl)-amide]",0.6
0.1,"O=C(Nc1nc2cc(N3CCC(c4ccccc4)CC3)ccc2[nH]1)c1cc2ccccc2cn1 [Example 7, Isoquinoline-3-carboxylic acid [5-(4-phenyl-piperidin-1-yl)-1H-benzoimidazol-2-yl]-amide]",1.4
